Assay results taken from patent US20250009691A1, “DIALYSIS FLUID COMPRISING KETONE BODIES FOR THE TREATMENT OF CANCER” (GAMBRO LUNDIA AB, priority 2021, published 2025).

How the values were obtained:
Assay type in all cases: cell-based, human
[1] = system: glioma cell line A172; experiment: Example 2: BOHB and Acac added alone or in combination to Medium A-C (CellTiter-Glo); settings: for growth, repetition experiments 2-6: BOHB or Acac added separately, FIG. 9, inconsistent results; for number of cells compared to 8 mM LiCl control: 8 mM Acac
Protocol: (§1) Stock solutions of DL-β-Hydroxybutyric acid sodium salt (H6501, Sigma Aldrich) and Lithium Acetoacetate (A8509, Sigma Aldrich) were prepared in water, sterile filtered, aliquoted and stored at −20° C. Lithium Chloride (L7026, Sigma Aldrich) was used as a control for the addition of Lithium in the Li-Acac.
(§2) CellTiter-Glo Luminescent cell viability assay (Promega) was used as a readout of cell numbers according to the manufacturers' instructions. In experiments shown in FIGS. 7-8, double plates were seeded and treated. One set of plates was used for collection of medium for lactate measurement (see below) and the CellTiterGlo-assay. The other set of plates was frozen at −80° C. at the end of the experiment. The frozen plates were intended for the CyQuant cell proliferation assay (Thermo Fisher) that measures the amount of DNA per well. Analysis of the amounts of cells by both CellTiterGlo and CyQuant assays would ensure that effects of the culture conditions on viability or growth rate would not be concealed by simultaneous changes in ATP-levels per cell.
(§3) Next, it was decided to also include Acac in the study and analyze the viability of cells cultured in the presence of BOHB and Acac alone or in combination in Medium A-C. The experiment was performed at 21% and 5% O2. The experiments were made with glioma cell lines A172 and U118MG.
(§4) Being a chiral molecule, BOHB exists as two enantiomers, D- and L-BOHB. D-BOHB is normally produced and metabolized in humans. The BOHB-salt used in this study contains a mixture of 50:50 of D- and L-BOHB. In order to ensure a high presence of the active D-form, the total concentration of BOHB added was increased to 16 mM, giving a level of 8 mM D-BOHB. To keep the total concentration of active ketones constant, 8 mM Acac was used, and for the combination of both ketones, the levels were adjusted to 4 mM Acac and 8 mM BOHB (containing 4 mM D-BOHB).
(§5) The Acac available for in vitro use is in the form of a lithium salt. Since lithium itself can affect the viability of cancer cells [Cohen-Harazi et al., Anticancer Res 2020; 40:3831-3837], 8 mM LiCl was used as a control for the 8 mM Acac data point and 4 mM LiCl was used as a control for the 4 mM Acac/8 mM BOHB data.
(§6) At the end of the experiment, the culture media from each well was collected and frozen to enable later determination of lactate levels as a measurement of the metabolic state. In addition, double experiments were performed, where one set of plates were frozen for later quantification of cell numbers using the CyQuant proliferation assay, and the amounts of cells in the other set were analyzed by CellTiterGlo viability assay.

[2] = system: glioma cell line U118MG; experiment: as above; settings: for number of cells compared to 8 mM LiCl control: 8 mM Acac
Protocol: as §1, §2, §3, §4, §5, §6

[3] = system: A172 (glioblastoma); experiment: Study 2: CellTiter-Glo viability, DMEM without sodium pyruvate; settings: BOHB 0/4/12 mM, 3 d
Protocol: (§7) Cell lines established from human colon carcinoma (HCT15, NCI-H508 and COLO205), renal cell carcinoma (769-P, 786-O and RCC4) and glioblastoma (LN-18, A-172 and U-118 MG) were selected for the analysis. All cell lines were obtained from American Type Culture Collection (ATCC, LGC standards, UK) except for RCC4 and HCT15 that was purchased from Sigma-Aldrich (Merck, Germany). In addition, primary human renal cell carcinoma (RCC) cells isolated from patient nephrectomies were included in the study. […]
(§8) Optimal seeding density was determined for each cell line in 96 well plates according to the “Protocol for optimizing cell seeding densities to ensure Log-phase growth”. […] Cover the plate. • Incubate the plate overnight at 37° C., 5% CO2. • Add 50 μL of fresh media to the plate wells to achieve a final volume of 200 µL and incubate for 72 h at 37° C., 5% CO2. • Measure viability using Cell Titer Glo assay according to manufacturer's protocol. • Plot log cell number against luminescence intensity to identify the concentration of cells at which log growth is achieved.
(§9) CellTiter-Glo Luminescent cell viability assay (Promega) was used as a readout of viability.
(§10) For each cell line, optimal number of cells as determined above were seeded into 96-well plates on day 0. […]

[4] = system: RCC4 (renal cell carcinoma); experiment: as above; settings: BOHB 0/4/12 mM, 3 d
Protocol: as §7, §8, §9, §10

[5] = system: renal carcinoma cell line RCC4; experiment: Example 2: BOHB and Acac added alone or in combination to Medium B-C (CellTiter-Glo); settings: nutrient restricted Medium C
Protocol: as §1, §2
Being a chiral molecule, BOHB exists as two enantiomers, D- and L-BOHB. D-BOHB is normally produced and metabolized in humans. The BOHB-salt used in this study contains a mixture of 50:50 of D- and L-BOHB. […]

[6] = Medium A, 16 mM BOHB alone, both normoxia and hypoxia, 3 days
[7] = Medium C, 16 mM BOHB, both 21 and 5% O2
[8] = Medium A, both normoxia and hypoxia

Row | Structure (SMILES) | growth inhibitory effect [1, 6] | number of cells, % of the amount in Medium B without BOHB ([1]; Medium B, hypoxic) | number of cells, % compared to C-medium without BOHB [1, 7] | growth, repetition experiments 2-6 ([1]; Medium C) | growth inhibitory effect [2, 6] | number of cells, % compared to C-medium without BOHB [2, 7] | proliferation of cells with increase in the concentration of BOHB [3] | proliferation of cells with increase in the concentration of BOHB [4] | increased sensitivity to high levels of BOHB or a combination of BOHB and Acac [5] | number of cells compared to 8 mM LiCl control [1, 8] | number of cells compared to 8 mM LiCl control ([1]; Medium B, only at 21% O2) | amounts of cells compared to 8 mM LiCl control ([1]; Medium C, 8 mM Acac alone) | number of cells compared to 8 mM LiCl control [2, 8] | number of cells compared to 8 mM LiCl control ([2]; Medium B, only at 21% O2) | amounts of cells compared to 8 mM LiCl control ([2]; Medium C, 8 mM Acac alone)
1 | CC(O)CC(=O)[O-].[Na+] (racemic) [BOHB, DL-β-Hydroxybutyric acid sodium salt] | no growth inhibitory effect | approximately 70% | around 30% | trend of reduced growth | no growth inhibitory effect | around 30% | suppresses the proliferation of cells | suppresses the proliferation of cells | not found |  |  |  |  |  | 
2 | CC(=O)CC(=O)[O-].[Li+] [Acac, Lithium Acetoacetate] |  |  |  | trend of reduced growth |  |  |  |  |  | did not reduce the number of cells further | reduced the number of cells significantly | did not significantly reduce the amounts of cells | did not reduce the number of cells further | reduced the number of cells significantly | did not significantly reduce the amounts of cells
